The source of these data is PubChem BioAssay AID1033 (Sanford-Burnham Center for Chemical Genomics, 2008).

The source made the active and inactive calls. How the calls were made is not given here. Some results are limits rather than exact numbers.

Sequence of Chaperone protein DnaK (Escherichia coli (strain K12)) (P0A6Y8 whole entry, looked up, the tested form may be a part): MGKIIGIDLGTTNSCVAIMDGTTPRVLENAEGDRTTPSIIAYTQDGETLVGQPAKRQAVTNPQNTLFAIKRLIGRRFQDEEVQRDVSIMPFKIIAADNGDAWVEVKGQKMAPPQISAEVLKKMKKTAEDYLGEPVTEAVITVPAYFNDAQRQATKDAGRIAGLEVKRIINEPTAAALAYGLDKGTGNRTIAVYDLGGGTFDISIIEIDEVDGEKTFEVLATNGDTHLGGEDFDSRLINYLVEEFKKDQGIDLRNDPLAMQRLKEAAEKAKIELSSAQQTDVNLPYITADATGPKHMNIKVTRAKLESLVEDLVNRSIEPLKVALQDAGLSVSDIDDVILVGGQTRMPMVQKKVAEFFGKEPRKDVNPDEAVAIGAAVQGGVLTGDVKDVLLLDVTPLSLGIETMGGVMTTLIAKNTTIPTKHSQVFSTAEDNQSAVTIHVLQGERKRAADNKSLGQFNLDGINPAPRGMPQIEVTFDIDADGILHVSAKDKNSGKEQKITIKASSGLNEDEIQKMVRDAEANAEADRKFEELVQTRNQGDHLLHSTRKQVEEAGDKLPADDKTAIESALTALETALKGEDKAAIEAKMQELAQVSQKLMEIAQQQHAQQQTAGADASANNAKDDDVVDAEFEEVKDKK

The test concerns the target Chaperone protein DnaK (Escherichia coli (strain K12)) (UniProt P0A6Y8). The test is described as follows: binders of DnaK substrate-binding domain, biophysical, NMR, chaperone (AID 1033). The following applies: Purified DnaK SBD, NMR ligand binding.
Usually Kd stands for the free concentration of one partner at which half of the binding sites on the other are occupied at equilibrium, for simple one-to-one binding. As for `CC(=O)c1sc(NC(=O)C=C(C)C)nc1C`, the Kd is > 4 mM (inactive).

Consider `O=CN1CCN(C(=O)c2ccco2)CC1`, for which the Kd is > 4 mM (inactive). Regarding `Cc1nnc(SCC(=O)N2CCCCC2)s1`, the Kd is > 4 mM (inactive). As for `CSc1ncc(C(=O)O)n1Cc1ccccc1`, the Kd was > 4 mM (inactive).

For `Cc1ccc(CCC(N)=O)o1`, the Kd is > 4 mM (inactive). Next, `OCC1=Cc2ccccc2OC1`: > 4 mM (inactive); `NC(=O)c1ccccc1NC(=O)C1CCCO1` (centres undefined): > 4 mM (inactive). Turning to `Cc1ccccc1CSc1nncn1N`, the Kd is > 4 mM (inactive). As for `NC(=O)CSc1ccc2nnc(-c3ccccc3)n2n1`, the figure is > 4 mM (inactive). Next, `CCOC(=O)Cc1cc(=O)n2[nH]c(C)cc2n1`: > 4 mM (inactive).

Consider `O[C@H]1C=C2CCN3Cc4cc5c(cc4C(C23)[C@@H]1O)OCO5` (some centres undefined), for which the Kd is > 4 mM (inactive).

As to `NC(=O)c1ccc(-c2ccccn2)s1`, the Kd is > 4 mM (inactive). As for `CNC(=O)n1ccc(C(=O)N2CCCCC2)n1`, the figure is > 4 mM (inactive); as for `O=S(=O)(Nc1ccc2c(c1)OCCO2)c1cccs1`, > 4 mM (inactive). As for `O=C(NCc1ccccn1)c1ccc(Br)s1`, the figure is > 4 mM (inactive); as for `Nc1cc(N)nc(SCc2cccnc2)n1`, > 4 mM (inactive). Next, `COc1ccc(C(C)=O)c(OC)c1`: > 4 mM (inactive). Regarding `OCC1CNc2ccccc2O1` (centres undefined), the Kd was > 4 mM (inactive).

Take `CC(=O)N=c1cccc(NC(C)=O)n1O`: the Kd was > 4 mM (inactive).

In the case of `O=C(Nc1ccncc1)c1cncc(Br)c1`, the Kd is > 4 mM (inactive). `N#CCN1C(=O)c2ccccc2S1(=O)=O`: the Kd was > 4 mM (inactive). Next, `Cc1cc(O)c(C=O)c(O)c1C(=O)O`: > 4 mM (inactive). For the molecule `O=C(CN1CCOCC1)Nc1nccs1`, the Kd was > 4 mM (inactive).

Regarding `CN(C)C(=O)Oc1cccc(-c2nnco2)c1`, the Kd is > 4 mM (inactive).

`CC(=O)Nc1ccc(Cl)c(C(N)=O)c1`: the Kd is > 4 mM (inactive). On to `COc1ccc(/C=C2\SC(N)=NC2=O)cc1`, for which the Kd was > 4 mM (inactive).

Regarding `O=c1c2c(nc3nc(COc4ccccc4)[nH]n13)CCC2`, the Kd was > 4 mM (inactive). As to `CN1CCN(C(=O)c2ccccc2N)CC1`, the Kd is > 4 mM (inactive).

On to `NC(=O)CSc1nnc2ccc(-c3ccco3)nn12`, for which the Kd was > 4 mM (inactive). As for `NCc1c[nH]c2ccccc12`, the figure is > 4 mM (inactive). Next, `Nc1ccc2[nH]ccc2c1`: > 4 mM (inactive); `CCOC(=O)C1=C(C)N2CCN=C2S1`: > 4 mM (inactive).

On to `O=P1(O)c2ccccc2Nc2ccccc21`, for which the Kd was > 4 mM (inactive). With `Cn1cnc2ccc([N+](=O)[O-])cc2c1=O`, the Kd was > 4 mM (inactive). As for `CC(=O)Nc1ccc(-c2ccc3nncn3n2)cc1`, the figure is > 4 mM (inactive); as for `Cc1cccc(NS(=O)(=O)c2cccs2)n1`, > 4 mM (inactive); as for `NC(=O)c1c[nH]c2ccccc12`, > 4 mM (inactive). In the case of `O=c1cc(-c2ccccc2)oc2c(O)c(O)ccc12`, the Kd is > 4 mM (inactive). Consider `O=c1[nH]cc(N2CCCCC2)c(=O)[nH]1`, for which the Kd is > 4 mM (inactive).

As for `c1ccc(Cc2nnc3sc(-c4ccncc4)nn23)cc1`, the Kd is > 4 mM (inactive).

`COc1ccc(-c2cc(=O)c3cc(OC)ccc3o2)cc1`: the Kd is > 4 mM (inactive).

Consider `Cc1cc2nc3c(=O)[nH]c(=O)nc-3n(CC(O)C(O)C(O)CO)c2cc1C` (centres undefined), for which the Kd is > 4 mM (inactive). Regarding `O=c1cnnc(SCCc2ccccc2)[nH]1`, the Kd was > 4 mM (inactive).

Consider `Cn1cc(Cl)c(C(=O)NC2CCCC2)n1`, for which the Kd is > 4 mM (inactive).
